Columns and labels:
Assay in all cases: relative viability (nuclei count vs DMSO), 5 days (fraction); higher = more cells survive
AZD8055 + Pemetrexed = compound: COc1ccc(-c2ccc3c(N4CCOC[C@@H]4C)nc(N4CCOC[C@@H]4C)nc3n2)cc1CO [AZD8055] + Nc1nc2[nH]cc(CCc3ccc(C(=O)N[C@@H](CCC(=O)O)C(=O)O)cc3)c2c(=O)[nH]1 [Pemetrexed] (partner 0.2 µM)
Outline: (§1)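 Relative viability divides the nuclei count in treated wells by that in vehicle wells. Lung cancer cell lines were seeded in 1536-well plates, dosed by pin tool the next day, and fixed and stained after 5 days in one step with final 0.05% Triton X-100, 1% formaldehyde and 1 ug/ml Hoechst. Dosing was a single drug or a fixed anchor-drug dose plus five library-drug doses (not always all listed) in √10 steps, and values are medians of duplicate plates imaged at 4×.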

AZD8055 + Navitoclax = compound: COc1ccc(-c2ccc3c(N4CCOC[C@@H]4C)nc(N4CCOC[C@@H]4C)nc3n2)cc1CO [AZD8055] + CC1(C)CCC(c2ccc(Cl)cc2)=C(CN2CCN(c3ccc(C(=O)NS(=O)(=O)c4ccc(N[C@H](CCN5CCOCC5)CSc5ccccc5)c(S(=O)(=O)C(F)(F)F)c4)cc3)CC2)C1 [Navitoclax] (partner 0.5 µM)
Outline: as §1

AZD8055 + Linsitinib = compound: COc1ccc(-c2ccc3c(N4CCOC[C@@H]4C)nc(N4CCOC[C@@H]4C)nc3n2)cc1CO [AZD8055] + C[C@]1(O)C[C@@H](c2nc(-c3ccc4ccc(-c5ccccc5)nc4c3)c3c(N)nccn32)C1 [Linsitinib] (partner 1 µM)
Outline: as §1

AZD8055 + Vorinostat = compound: COc1ccc(-c2ccc3c(N4CCOC[C@@H]4C)nc(N4CCOC[C@@H]4C)nc3n2)cc1CO [AZD8055] + O=C(CCCCCCC(=O)Nc1ccccc1)NO [Vorinostat] (partner 1 µM)
Outline: as §1

| Cell Line | relative viability (AZD8055 + Pemetrexed; first compound 0.01 µM) | relative viability (AZD8055 + Pemetrexed; first compound 0.03162 µM) | relative viability (AZD8055 + Pemetrexed; first compound 0.1 µM) | relative viability (AZD8055 + Pemetrexed; first compound 0.3162 µM) | relative viability (AZD8055 + Pemetrexed; first compound 1 µM) | relative viability (AZD8055 + Navitoclax; first compound 0.01 µM) | relative viability (AZD8055 + Navitoclax; first compound 0.03162 µM) | relative viability (AZD8055 + Navitoclax; first compound 0.1 µM) | relative viability (AZD8055 + Navitoclax; first compound 0.3162 µM) | relative viability (AZD8055 + Navitoclax; first compound 1 µM) | relative viability (AZD8055 + Linsitinib; first compound 0.01 µM) | relative viability (AZD8055 + Linsitinib; first compound 0.03162 µM) | relative viability (AZD8055 + Linsitinib; first compound 0.1 µM) | relative viability (AZD8055 + Linsitinib; first compound 0.3162 µM) | relative viability (AZD8055 + Linsitinib; first compound 1 µM) | relative viability (AZD8055 + Vorinostat; first compound 0.01 µM) | relative viability (AZD8055 + Vorinostat; first compound 0.03162 µM) | relative viability (AZD8055 + Vorinostat; first compound 0.1 µM) | relative viability (AZD8055 + Vorinostat; first compound 0.3162 µM) | relative viability (AZD8055 + Vorinostat; first compound 1 µM) |
| --- | --- | --- | --- | --- | --- | --- | --- | --- | --- | --- | --- | --- | --- | --- | --- | --- | --- | --- | --- | --- |
| NCI-H2009 | 1.08 | 1.06 | 1.03 | 0.722 | 0.263 | 1.11 | 1.14 | 1.04 | 0.553 | 0.323 | 1.17 | 1.1 | 0.891 | 0.692 | 0.374 | 0.816 | 0.798 | 0.732 | 0.458 | 0.395 |
| NCI-H2023 | 0.229 | 0.205 | 0.16 | 0.0973 | 0.122 | 0.951 | 0.871 | 0.598 | 0.249 | 0.181 | 0.45 | 0.343 | 0.28 | 0.17 | 0.12 | 0.65 | 0.405 | 0.335 | 0.14 | 0.115 |
| NCI-H2085 | 0.827 | 0.74 | 0.481 | 0.31 | 0.268 | 1.11 | 0.945 | 0.672 | 0.417 | 0.33 | 0.956 | 0.744 | 0.566 | 0.289 | 0.274 | 0.645 | 0.554 | 0.49 | 0.44 | 0.363 |
| NCI-H2087 | 0.646 | 0.587 | 0.588 | 0.427 | 0.292 | 0.911 | 0.951 | 0.703 | 0.421 | 0.309 | 0.907 | 0.905 | 0.679 | 0.411 | 0.367 | 0.679 | 1.03 | 0.734 | 0.152 | 0.223 |
| NCI-H2126 | 0.693 | 0.622 | 0.649 | 0.579 | 0.401 | 0.801 | 0.763 | 0.641 | 0.487 | 0.345 | 0.655 | 0.572 | 0.504 | 0.375 | 0.385 | 0.82 | 0.739 | 0.505 | 0.496 | 0.405 |
| NCI-H2228 | 0.41 | 0.345 | 0.233 | 0.171 | 0.171 | 0.804 | 0.86 | 0.24 | 0.18 | 0.244 | 0.528 | 0.284 | 0.304 | 0.175 | 0.257 | 0.918 | 0.541 | 0.416 | 0.271 | 0.242 |
| NCI-H2347 | 0.456 | 0.449 | 0.442 | 0.414 | 0.435 | 0.859 | 0.595 | 0.453 | 0.339 | 0.24 | 0.875 | 0.805 | 0.746 | 0.51 | 0.436 | 0.424 | 0.66 | 0.406 | 0.304 | 0.352 |
| NCI-H2405 | 1.06 | 0.987 | 0.803 | 0.34 | 0.342 | 0.939 | 0.93 | 0.708 | 0.392 | 0.291 | 0.802 | 0.621 | 0.477 | 0.333 | 0.331 | 1.19 | 0.918 | 0.796 | 0.36 | 0.373 |

Source: the supplement of paper PMC10307832
